pIC50: −log10 of the molar value.
assay: Displacement of [125I]gastrin from guinea pig gastric glands

`Cc1nnc2n1-c1ccc(Cl)cc1C(c1ccccc1)=NC2` and `Cc1nnc2n1-c1ccc(Cl)cc1C(c1ccccc1Cl)=NC2` [Halcion] cannot be ordered by pIC50: under 4.00 for the first, under 4.00 for the second.

`Cc1nnc2n1-c1ccccc1C(c1ccccc1)=NC2NC(=O)Nc1ccc(Cl)cc1` (stereo not drawn) [1-(4-Chloro-phenyl)-3-(1-methyl-6-phenyl-4H-2,3,5,10b-tetraaza-benzo[e]azulen-4-yl)-urea] and `O=C(Nc1ccc(Cl)cc1)NC1N=C(c2ccccc2)c2ccccc2-n2cnnc21` (stereo not drawn) [1-(4-Chloro-phenyl)-3-(6-phenyl-4H-2,3,5,10b-tetraaza-benzo[e]azulen-4-yl)-urea] are the same in pIC50: 6.42 for the first, 6.42 for the second.

First: Cc1nnc2n1-c1ccccc1C(c1ccccc1F)=NC2NC(=O)c1cc2ccccc2[nH]1 (stereo not drawn) [1H-Indole-2-carboxylic acid [6-(2-fluoro-phenyl)-1-methyl-4H-2,3,5,10b-tetraaza-benzo[e]azulen-4-yl]-amide(0.2EtOAc)]
Second: O=C(NC1N=C(c2ccccc2F)c2ccccc2-n2cnnc21)c1cc2ccccc2[nH]1 (stereo not drawn) [1H-Indole-2-carboxylic acid [6-(2-fluoro-phenyl)-4H-2,3,5,10b-tetraaza-benzo[e]azulen-4-yl]-amide(0.1EtOAc)]
The pIC50 of the first is 0.96 log units higher: 8.15 for the first, 7.19 for the second. The first is the more potent here.

`O=C(NC1N=C(c2ccccc2F)c2ccccc2-n2cnnc21)c1ccc(Cl)cc1` (stereo not drawn) [4-Chloro-N-[6-(2-fluoro-phenyl)-4H-2,3,5,10b-tetraaza-benzo[e]azulen-4-yl]-benzamide] and `O=C(NC1N=C(c2ccccc2F)c2ccccc2-n2cnnc21)OCc1ccccc1` (stereo not drawn) [[6-(2-Fluoro-phenyl)-4H-2,3,5,10b-tetraaza-benzo[e]azulen-4-yl]-carbamic acid benzyl ester] are within 0.2 log units of each other in pIC50: 5.62 for the first, 5.52 for the second.

`Fc1ccccc1C1=N[C@H](Cc2c[nH]c3ccccc23)c2nnc(-c3ccccc3)n2-c2ccccc21` [6-(2-Fluoro-phenyl)-4-(1H-indol-3-ylmethyl)-1-phenyl-4H-2,3,5,10b-tetraaza-benzo[e]azulene(0.55CHCl3)] and `Fc1ccccc1C1=N[C@H](Cc2c[nH]c3ccccc23)c2nnc(C(Cl)(Cl)Cl)n2-c2ccccc21` [6-(2-Fluoro-phenyl)-4-(1H-indol-3-ylmethyl)-1-trichloromethyl-4H-2,3,5,10b-tetraaza-benzo[e]azulene(0.5CHCl3)] cannot be ordered by pIC50: under 4.00 for the first, under 4.00 for the second.

Compared with `Fc1ccccc1C1=N[C@H](Cc2c[nH]c3ccccc23)c2nncn2-c2ccccc21` [6-(2-Fluoro-phenyl)-4-(1H-indol-3-ylmethyl)-4H-2,3,5,10b-tetraaza-benzo[e]azulene(0.5CHCl3)], `CN(C)Cc1nnc2n1-c1ccccc1C(c1ccccc1F)=N[C@@H]2Cc1c[nH]c2ccccc12` [[6-(2-Fluoro-phenyl)-4-(1H-indol-3-ylmethyl)-4H-2,3,5,10b-tetraaza-benzo[e]azulen-1-ylmethyl]-dimethyl-amine(0.22CHCl3)] is 0.38 log units lower in pIC50: 4.60 for the first, 4.22 for the second.

Compound `O=C(NC1N=C(c2ccccc2)c2ccccc2-n2cnnc21)OCc1ccccc1` (stereo not drawn) [(6-Phenyl-4H-2,3,5,10b-tetraaza-benzo[e]azulen-4-yl)-carbamic acid benzyl ester(0.25EtOAc)] has a pIC50 of 5.32.

From BindingDB's records for doi:10.1021/jm00396a028 (Merck Sharp & Dohme Research Laboratories, 1988)
